In ChEMBL document CHEMBL1128929, “A novel nitro-substituted seco-CI: Application as a reductively activated adept prodrug” (Bioorg Med Chem Lett, 1996):

Tests used:
[1] = Compound was evaluated for its inhibitory activity against UV4 cell in the presence of drug alone.; format: functional, cell-based, Cricetulus griseus
[2] = Compound was evaluated for its inhibitory activity against UV4 cell in the presence of drug along with NADH and enzyme(Escherichia coli B nitroreductase); format: functional, cell-based, Cricetulus griseus
[3] = Compound was evaluated for its inhibitory activity against UV4 cell in the presence of drug and NADH.; format: functional, cell-based, Cricetulus griseus
[4] = Ratio of IC50 (drug alone)/IC50(drug+NADH+enzyme); format: functional

SMILES	IC50 [1]	IC50 [2]	IC50 [3]	Ratio [4]
COc1cc2cc(C(=O)N3CC(CCl)c4ccc(NC(=O)OCc5ccc([N+](=O)[O-])cc5)cc43)[nH]c2c(OC)c1OC (configuration not stated)	15000 nM	598 nM	11300 nM	0.9
COc1cc2cc(C(=O)N3CC(CCl)c4ccc(N)cc43)[nH]c2c(OC)c1OC (configuration not stated)	23.6 nM	27.8 nM	26.6 nM	23.2
COc1cc2cc(C(=O)N3CC(CCl)c4ccc([N+](=O)[O-])cc43)[nH]c2c(OC)c1OC (configuration not stated)	2310 nM	6.4 nM	237 nM	402
